Data set [1] addresses T1, Recombinant GST-TAG-MASTL (Homo sapiens, UniProt Q96GX5).
T1 construct: GST; purchased Thermo Fisher Scientific
T1 sequence (Q96GX5 1-879): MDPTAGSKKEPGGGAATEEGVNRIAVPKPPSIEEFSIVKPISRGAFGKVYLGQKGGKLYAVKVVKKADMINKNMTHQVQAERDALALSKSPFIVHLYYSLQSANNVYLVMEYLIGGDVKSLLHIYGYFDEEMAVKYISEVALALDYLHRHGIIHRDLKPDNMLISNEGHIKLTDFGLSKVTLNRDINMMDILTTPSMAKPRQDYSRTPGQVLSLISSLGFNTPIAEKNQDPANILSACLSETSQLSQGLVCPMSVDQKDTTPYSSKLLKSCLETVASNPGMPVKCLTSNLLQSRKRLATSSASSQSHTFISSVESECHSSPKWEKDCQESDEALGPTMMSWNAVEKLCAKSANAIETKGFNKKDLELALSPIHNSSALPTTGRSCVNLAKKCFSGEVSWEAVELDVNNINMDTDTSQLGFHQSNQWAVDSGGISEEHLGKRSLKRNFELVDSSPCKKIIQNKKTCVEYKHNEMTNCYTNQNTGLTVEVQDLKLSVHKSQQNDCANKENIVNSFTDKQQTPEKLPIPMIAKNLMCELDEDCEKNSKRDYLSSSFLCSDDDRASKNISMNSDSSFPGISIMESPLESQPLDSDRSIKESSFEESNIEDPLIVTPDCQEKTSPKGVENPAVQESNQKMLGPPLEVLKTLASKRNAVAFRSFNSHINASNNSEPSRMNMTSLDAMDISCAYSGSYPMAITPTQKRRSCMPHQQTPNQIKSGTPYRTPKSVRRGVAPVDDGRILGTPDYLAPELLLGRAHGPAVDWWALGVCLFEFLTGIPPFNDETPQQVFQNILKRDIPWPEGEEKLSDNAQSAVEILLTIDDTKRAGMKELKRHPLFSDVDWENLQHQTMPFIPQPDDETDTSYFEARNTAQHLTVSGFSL
In words: HTRF-based kinase assay (HTRF KinEASE assay kit). The settings on record: for activity at 1 µM: read-out: MASTL activity (%) HTRF (1 µM); for activity at 10 µM: read-out: MASTL activity (%) HTRF. It counts as biochemical. The text has this: Recombinant GST-TAG-MASTL (Thermo Fisher Scientific, MA, USA) was used for HTRF-based kinase assays. The HTRF KinEASE assay kit (CisBio, MA, USA) was used according to the manufacturer's instructions.

The test system of another data set is pENSA. In words: pENSA level by immunofluorescence (described method: in vitro kinase analysis with GST-tag-MASTL and His-tag-ENSA). It counts as cell-based. The following applies: for pENSA (%) Immunofluor ecense (1 µM): compound 1 µM; for IC50: read-out: IC50(nM) pENSA. The gist of the method: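 In vitro kinase reaction using recombinant GST-tagged MASTL with His-tagged ENSA as substrate; phosphorylated ENSA (pENSA) serves as read-out of MASTL activity. Cell lines named: MCF7 breast cancer and MCF10A.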

A short description of a further data set: in vitro. The settings on record: human, mcf10a cells.
The subject of data set [2] is MCF7 breast cancer cell lines. In words: Cell viability analysis, WST-8 assay, MCF7. The following applies: Homo sapiens, MCF7, 72 h; for viability at 1 µM: read-out: Cell viability (%) WST-8, MCF7 (1 µM), compound 1 µM, 72 hours; for viability at 1.25 µM: read-out: Cell viability (%) WST-8, MCF7, footnote a: concentration 1.25 µM, 72 hours; for IC50: read-out: IC50 Cell viability (MCF7).
Experimental: MCF7 breast cancer cell lines and MCF10A normal breast cancer cell lines were treated with serial dilutions of the compounds of the present invention ranging from 1 µM to 15.63 nM for 72 hours. Cell viability was measured by the WST-8 assay (Cyto XTM cell viability assay kit; LPS solution, Daejeon, Korea) according to the manufacturer's instructions.

The mark [3] stands for this setting: HTRF, read-out: IC50(nM) MASTL activity.
The mark [4] stands for this setting: footnote b: concentration 10 µM.

Where two headings read alike, the source gives them in different places.

In the case of `c1ccc(CN2CC3CC2CN3c2nc(Nc3cc(C4CC4)[nH]n3)c3ccccc3n2)cc1` (centres unmarked) [compound 15g, 2-(5-benzyl-2,5-diazabicyclo[2.2.1]heptan-2-yl)-M-(5-cyclopropyl-1G-pyrazol-3-yl)quinazolin-4-amine], the IC50 in data set [1] (setting [3]) was 225 nM. In data set [1] (compound 1 µM), the activity at 1 µM stood at 27.9%. Besides, the “pENSA (%) Immunofluor ecense (1 µM)” value with pENSA was determined as 65.6%. In addition, the figures for the viability at 1 µM (in the data set “in vitro”; in data set [2]) were 42.9% and 54.4%, respectively.

Take `NCCCCNC(=O)c1ccc(Nc2nc(Nc3cc(C4CC4)[nH]n3)c3ccccc3n2)cc1` [4ac, M-(4-aminobutyl)-4-((4-((5-cyclopropyl-1G-pyrazol-3-yl)amino)quinazolin-2-yl)amino)benzamide.trifluoroacetic acid]: the activity at 1 µM in data set [1] was 58.3%. Also, the “pENSA (%) Immunofluor ecense (1 µM)” value in the data set with pENSA was 149%. The viability at 1 µM in “in vitro” came to 102%; in data set [2] it was 104%.

Regarding `NS(=O)(=O)c1ccc(Nc2nc(Nc3cc(C4CC4)[nH]n3)c3ccccc3n2)cc1` [compound 4g, 4-((4-((5-cyclopropyl-1G-pyrazol-3-yl)amino)quinazolin-2-yl)amino)benzenesulfonamide], in data set [1], the IC50 turned out to be 189 nM and the activity at 10 µM was found to be 18.6%. Also, in the data set with pENSA, the “pENSA (%) Immunofluor ecense (1 µM)” value is listed as 10.4% and the IC50 turned out to be 344 nM. The viability at 1.25 µM in “in vitro” was 9.3%. Besides, in data set [2], the viability at 1.25 µM was found to be 85.3% and the IC50 worked out at 2700 nM.

As to `COC(=O)c1ccc(Nc2nc(Nc3cc(C4CC4)[nH]n3)c3ccccc3n2)cc1` [compound 4o, Methyl 4-((4-((5-cyclopropyl-1G-pyrazol-3-yl)amino)quinazolin-2-yl)amino)benzoate], the activity at 1 µM in data set [1] (compound 1 µM) turned out to be 53.8%. Also, in the data set with pENSA, the “pENSA (%) Immunofluor ecense (1 µM)” value was 19.2% and the IC50 worked out at 680 nM. Also, in “in vitro”, the viability at 1 µM was determined as 79.4%. In addition, in data set [2], the viability at 1 µM came to 53.4%.

As to `CC(C)(C)OC(=O)c1ccc(Nc2nc(Nc3cc(C4CC4)[nH]n3)c3ccccc3n2)cc1` [compound 4p, sdqs-butyl 4-((4-((5-cyclopropyl-1G-pyrazol-3-yl)amino)quinazolin-2-yl)amino)benzoate], the activity at 1 µM in data set [1] (compound 1 µM) worked out at 58%. For the same compound, the “pENSA (%) Immunofluor ecense (1 µM)” value with pENSA is 56.2%. Besides, the viability at 1 µM in “in vitro” is 86.8%; in data set [2], 100%.

In the case of `O=S(=O)(c1cccc2cccnc12)N1CC2CC1CN2c1nc(Nc2cc(C3CC3)[nH]n2)c2ccccc2n1` (centres unmarked) [compound 15z, M-(5-cyclopropyl-1G-pyrazol-3-yl)-2-(5-(quinolin-8-ylsulfonyl)-2,5-diazabicyclo[2.2.1]heptan-2-yl)quinazolin-4-amine], the activity at 1 µM in data set [1] (compound 1 µM) is 105%. For the same compound, the “pENSA (%) Immunofluor ecense (1 µM)” value in the data set on pENSA was determined as 102%. The viability at 1 µM in “in vitro” amounted to 111%; in data set [2], 110%.

Turning to `O=S(=O)(c1cccc(C(F)(F)F)c1)N1CC2CC1CN2c1nc(Nc2cc(C3CC3)[nH]n2)c2ccccc2n1` (centres unmarked) [compound 15u, M-(5-cyclopropyl-1G-pyrazol-3-yl)-2-(5-((3-(trifluoromethyl)phenyl)sulfonyl)-2,5-diazabicyclo[2.2.1]heptan-2-yl)quinazolin-4-amine], in data set [1] (setting [3]), the IC50 was determined as 269 nM. The activity at 1 µM in data set [1] (compound 1 µM) is 48.3%. For the same compound, the “pENSA (%) Immunofluor ecense (1 µM)” value with pENSA was found to be 100%. Further, the viability at 1 µM in “in vitro” amounted to 121%; in data set [2], 107%.

Turning to `CC(C)C(=O)N1CC2CC1CN2c1nc(Nc2cc(C3CC3)[nH]n2)c2ccccc2n1` (centres unmarked) [compound 15d, 1-(5-(4-((5-cyclopropyl-1G-pyrazol-3-yl)amino)quinazolin-2-yl)-2,5-diazabicyclo[2.2.1]heptan-2-yl)-2-methylpropan-1-one], in data set [1] (compound 1 µM), the activity at 1 µM turned out to be 58.8%. Further, the “pENSA (%) Immunofluor ecense (1 µM)” value in the data set on pENSA stood at 68.6%. The viability at 1 µM in the data set “in vitro” stood at 40.3%; in data set [2], 51.5%.

Regarding `Clc1nc(Nc2cc(C3CC3)[nH]n2)c2ccccc2n1` [compound 2a, 2-chloro-M-(5-cyclopropyl-1G-pyrazol-3-yl)quinazolin-4-amine], in data set [1] (compound 1 µM), the activity at 1 µM was found to be 73.4%. For the same compound, the “pENSA (%) Immunofluor ecense (1 µM)” value in the data set with pENSA came out at 105%. Besides, the viability at 1 µM in “in vitro” is 93.3%; in data set [2], 106%.

With `CC(C)(C)OC(=O)N1CCC2(CC1)CN(c1nc(Nc3cc(C4CC4)[nH]n3)c3ccccc3n1)C2` [6d, sdqs-butyl 2-(4-((5-cyclopropyl-1G-pyrazol-3-yl)amino)quinazolin-2-yl)-2,7-diazaspiro[3.5]nonane-7-carboxylate], in data set [1] (compound 1 µM), the activity at 1 µM was 48%. Besides, the “pENSA (%) Immunofluor ecense (1 µM)” value with pENSA was 96.4%. The viability at 1 µM in the data set “in vitro” was 104%; in data set [2] it was 88.6%.

In the case of `C1=C(c2ccccc2)CCN(c2nc(Nc3cc(C4CC4)[nH]n3)c3ccccc3n2)C1` [compound 6e, M-(5-cyclopropyl-1G-pyrazol-3-yl)-2-(4-phenyl-3,6-dihydropyridin-1(2G)-yl)quinazolin-4-amine], in data set [1] (setting [3]), the IC50 came to 569 nM. The activity at 1 µM in data set [1] (compound 1 µM) was 43.3%. The “pENSA (%) Immunofluor ecense (1 µM)” value in the data set with pENSA was 97%. For the same compound, the viability at 1 µM in the data set “in vitro” came to 91.4%; in data set [2] it was 90.9%.

As to `CS(=O)(=O)Cc1ccc(Nc2nc(Nc3cc(C4CC4)[nH]n3)c3ccccc3n2)cc1` [compound 4f, M^4-(5-cyclopropyl-1G-pyrazol-3-yl)-M^2-(4-((methylsulfonyl)methyl)phenyl)quinazoline-2,4-diamine], the activity at 10 µM in data set [1] (setting [4]) amounted to 29%. Besides, in the data set on pENSA, the “pENSA (%) Immunofluor ecense (1 µM)” value turned out to be 50.5% and the IC50 came out at 899 nM. The viability at 1.25 µM in the data set “in vitro” was found to be 33%. In addition, in data set [2], the viability at 1.25 µM was 94.5% and the IC50 worked out at 2300 nM.

With `c1ccc2sc(-c3ccc(Nc4nc(Nc5cc(C6CC6)[nH]n5)c5ccccc5n4)cc3)nc2c1` [compound 4m, M^2-(4-(benzo[c]thiazol-2-yl)phenyl)-M^4-(5-cyclopropyl-1G-pyrazol-3-yl)quinazoline-2,4-diamine], the activity at 1 µM in data set [1] (compound 1 µM) was determined as 73%. Besides, the “pENSA (%) Immunofluor ecense (1 µM)” value in the data set with pENSA is given as 88.8%. The viability at 1 µM was determined as 85.8% in “in vitro” and 110% in data set [2].

Consider `FC(F)(F)c1cc(Nc2nc(Nc3cc(C4CC4)[nH]n3)c3ccccc3n2)ccc1Cl` [compound 4k, M^2-(4-chloro-3-(trifluoromethyl)phenyl)-M^4-(5-cyclopropyl-1G-pyrazol-3-yl)quinazoline-2,4-diamine], for which, in data set [1] (setting [4]), the activity at 10 µM came to 59.2%. Further, the “pENSA (%) Immunofluor ecense (1 µM)” value with pENSA worked out at 105%. Also, the viability at 1.25 µM turned out to be 115% in the data set “in vitro” and 80.8% in data set [2].

On to `Cc1ccc(S(=O)(=O)N2CC3CC2CN3c2nc(Nc3cc(C4CC4)[nH]n3)c3ccccc3n2)cc1F` (centres unmarked) [compound 15w, M-(5-cyclopropyl-1G-pyrazol-3-yl)-2-(5-((3-fluoro-4-methylphenyl)sulfonyl)-2,5-diazabicyclo[2.2.1]heptan-2-yl)quinazolin-4-amine], for which, in data set [1] (compound 1 µM), the activity at 1 µM came out at 64.1%. In addition, the “pENSA (%) Immunofluor ecense (1 µM)” value with pENSA was 86.2%. Further, the viability at 1 µM in “in vitro” stood at 107%; in data set [2], 93.5%.

On to `CC(C)(C)OC(=O)NCCCCCNC(=O)c1ccc(Nc2nc(Nc3cc(C4CC4)[nH]n3)c3ccccc3n2)cc1` [4z, sdqs-butyl (5-(4-((4-((5-cyclopropyl-1G-pyrazol-3-yl)amino)quinazolin-2-yl)amino)benzamido)pentyl)carbamate], for which the activity at 1 µM in data set [1] (compound 1 µM) amounted to 85.3%. For the same compound, in the data set with pENSA, the “pENSA (%) Immunofluor ecense (1 µM)” value was 188%. The values for the viability at 1 µM (in “in vitro”; in data set [2]) were 77.7% and 86.3%, respectively.

For the compound `C1=C(c2nc(Nc3cc(C4CC4)[nH]n3)c3ccccc3n2)CCNC1` [compound 8, M-(5-cyclopropyl-1G-pyrazol-3-yl)-2-(1,2,3,6-tetrahydropyridin-4-yl)quinazolin-4-amine trifluoroacetic acid], in data set [1], the activity at 1 µM was found to be 57.2%. For the same compound, in the data set on pENSA, the “pENSA (%) Immunofluor ecense (1 µM)” value is 53%. Further, the values for the viability at 1 µM (in the data set “in vitro”; in data set [2]) were 80.8% and 64.3%, respectively.

The record behind these values is patent EP4786466A1, “QUINAZOLINE DERIVATIVE, SALT THEREOF, AND PHARMACEUTICAL COMPOSITION COMPRISING SAME AS ACTIVE INGREDIENT” (Korea Research Institute of Chemical Technology, priority 2023, dated 2025).
